Results published in patent US20250325517A1, “ORAL DOSAGE FORMS OF ELRAGLUSIB” (Actuate Therapeutics, Inc., priority 2022, published 2025).
Where “and” joins values, the source holds several entries; their conditions need not be identical. Identical values can stand only once. Like-named read-outs stand apart in the source and are kept apart here. Marks after values point to notes of the source that are not given here.

Assay: Phase 1 crossover PK study: oral solution fed/fasted vs IV infusion in healthy subjects
Assay type: in vivo, human
Conditions: for bioavailability: dose increasing from 180 mg to 320 mg
Protocol: This pharmacokinetic (PK) study in healthy subjects was conducted to characterize and compare the PK parameters in plasma following a single intravenous (IV) dose of Elraglusib Injection, Elraglusib Oral Solution after fasting, and Elraglusib Oral Solution after a high-fat meal (fed). The study was intended to assess the potential feasibility of an oral formulation of elraglusib based on systemic exposure being within the biologically active range. In clinical studies conducted to date, elraglusib Injection (10 mg/mL) is administered IV once or twice per week over multiple hours, which requires a significant amount of time and resources by both patients and site personnel. […] See Example 3 above.
The route of administration is by IV infusion after diluting elraglusib for injection with 0.9% Sodium Chloride Injection.
It is a clear, red solution, free of visible particulate matter and a low bioburden liquid dosage form that is self-preserving against microbial growth.
Subjects received a single 3.3 mg/kg dose of each of the following in a randomly assigned order separated by a 2-week period.
During the study, the high fat meal was administered over a period of under 30 minutes (in almost all cases, 28 minutes).
Elraglusib Injection (10 mg/mL) administered as an IV infusion over 60 minutes (concentration in mg/mL and infusion rate in mL/kg/hour could vary depending on the subject's body weight).
PK parameters including AUC, Cmax, Tmax, and t1/2 were analyzed by standard non-compartmental analysis (NCA) methods following each of the elraglusib doses. Log transformed Cmax and AUC parameters in subjects having adequate PK data following at least 1 of the oral and IV doses were used to assess the relative bioavailability of the oral dose (fed and/or fasted) compared to the IV dose.
All efforts were made to obtain the PK samples at the scheduled nominal times relative to dosing. PK samples were assayed using validated analytical methods.

[1] = oral 3.3 mg/kg fasted state, human plasma
[2] = oral 3.3 mg/kg fed state, human plasma
[3] = oral fasted vs IV infusion, 3.3 mg/kg
[4] = oral fed vs IV infusion, 3.3 mg/kg
[5] = oral fed vs oral fasted, 3.3 mg/kg

Cn1cc(C2=C(c3coc4ccc(F)cc34)C(=O)NC2=O)c2cc3c(cc21)OCO3 [elraglusib, 3-(5-fluorobenzofuran-3-yl)-4-(5-methyl-5H-[1,3]dioxolo[4,5-f]indol-7-yl)-1H-pyrrole-2,5-dione]
Tmax (human, plasma, po, 3.3 mg/kg, oral 3.3 mg/kg fasted state, human plasma, read-out: Tmax Median): 2 h
half-life (human, plasma, po, 3.3 mg/kg, oral 3.3 mg/kg fasted state, human plasma, read-out: t1/2 Arithmetic Mean (converted)): 16.4 h
half-life (human, plasma, po, 3.3 mg/kg, oral 3.3 mg/kg fasted state, human plasma, read-out: t1/2 GMean (converted)): 15.6 h
half-life (human, plasma, po, 3.3 mg/kg, oral 3.3 mg/kg fasted state, human plasma, read-out: t1/2 Median (converted)): 18.2 h
AUC (human, plasma, po, 3.3 mg/kg, oral 3.3 mg/kg fed state, human plasma, read-out: AUC24 Arithmetic Mean): 3930 ng·h/mL
AUC (human, plasma, po, 3.3 mg/kg, oral 3.3 mg/kg fed state, human plasma, read-out: AUC24 GMean): 3420 ng·h/mL
AUC (human, plasma, po, 3.3 mg/kg, oral 3.3 mg/kg fed state, human plasma, read-out: AUC24 Median): 3990 ng·h/mL
AUC (human, plasma, po, 3.3 mg/kg, oral 3.3 mg/kg fed state, human plasma, read-out: AUC48 Arithmetic Mean): 4550 ng·h/mL
AUC (human, plasma, po, 3.3 mg/kg, oral 3.3 mg/kg fed state, human plasma, read-out: AUC48 GMean): 3980 ng·h/mL
AUC (human, plasma, po, 3.3 mg/kg, oral 3.3 mg/kg fed state, human plasma, read-out: AUC48 Median): 4440 ng·h/mL
AUC (human, plasma, po, 3.3 mg/kg, oral 3.3 mg/kg fed state, human plasma, read-out: AUC72 Arithmetic Mean): 4780 ng·h/mL
AUC (human, plasma, po, 3.3 mg/kg, oral 3.3 mg/kg fed state, human plasma, read-out: AUC72 GMean): 4160 ng·h/mL
AUC (human, plasma, po, 3.3 mg/kg, oral 3.3 mg/kg fed state, human plasma, read-out: AUC72 Median): 4600 ng·h/mL
AUC (human, plasma, po, 3.3 mg/kg, oral 3.3 mg/kg fed state, human plasma, read-out: AUC96 Arithmetic Mean): 4890 ng·h/mL
AUC (human, plasma, po, 3.3 mg/kg, oral 3.3 mg/kg fed state, human plasma, read-out: AUC96 GMean): 4250 ng·h/mL
AUC (human, plasma, po, 3.3 mg/kg, oral 3.3 mg/kg fed state, human plasma, read-out: AUC96 Median): 4730 ng·h/mL
AUC(0-t) (human, plasma, po, 3.3 mg/kg, oral 3.3 mg/kg fed state, human plasma, read-out: AUClast Arithmetic Mean): 4890 ng·h/mL
AUC(0-t) (human, plasma, po, 3.3 mg/kg, oral 3.3 mg/kg fed state, human plasma, read-out: AUClast GMean): 4250 ng·h/mL
AUC(0-t) (human, plasma, po, 3.3 mg/kg, oral 3.3 mg/kg fed state, human plasma, read-out: AUClast Median): 4730 ng·h/mL
AUC(0-inf) (human, plasma, po, 3.3 mg/kg, oral 3.3 mg/kg fed state, human plasma, read-out: AUC∞ Arithmetic Mean): 5000 ng·h/mL
AUC(0-inf) (human, plasma, po, 3.3 mg/kg, oral 3.3 mg/kg fed state, human plasma, read-out: AUC∞ GMean): 4330 ng·h/mL
AUC(0-inf) (human, plasma, po, 3.3 mg/kg, oral 3.3 mg/kg fed state, human plasma, read-out: AUC∞ Median): 5020 ng·h/mL
CL/F (human, plasma, po, 3.3 mg/kg, oral 3.3 mg/kg fed state, human plasma, read-out: CL/F Arithmetic Mean (converted)): 15.1 mL/min/kg
CL/F (human, plasma, po, 3.3 mg/kg, oral 3.3 mg/kg fed state, human plasma, read-out: CL/F GMean (converted)): 12.7 mL/min/kg
CL/F (human, plasma, po, 3.3 mg/kg, oral 3.3 mg/kg fed state, human plasma, read-out: CL/F Median (converted)): 11 mL/min/kg
Cmax (human, plasma, po, 3.3 mg/kg, oral 3.3 mg/kg fed state, human plasma, read-out: Cmax Arithmetic Mean): 592 ng/mL
Cmax (human, plasma, po, 3.3 mg/kg, oral 3.3 mg/kg fed state, human plasma, read-out: Cmax GMean): 474 ng/mL
Cmax (human, plasma, po, 3.3 mg/kg, oral 3.3 mg/kg fed state, human plasma, read-out: Cmax Median): 507 ng/mL
Tmax (human, plasma, po, 3.3 mg/kg, oral 3.3 mg/kg fed state, human plasma, read-out: Tmax Arithmetic Mean): 5.34 h
Tmax (human, plasma, po, 3.3 mg/kg, oral 3.3 mg/kg fed state, human plasma, read-out: Tmax GMean): 5.02 h
Tmax (human, plasma, po, 3.3 mg/kg, oral 3.3 mg/kg fed state, human plasma, read-out: Tmax Median): 5 h
Vd/F (human, plasma, po, 3.3 mg/kg, oral 3.3 mg/kg fed state, human plasma, read-out: Vz/F GMean): 20.9 L/kg and 1530 L
half-life (human, plasma, po, 3.3 mg/kg, oral 3.3 mg/kg fed state, human plasma, read-out: t1/2 Arithmetic Mean (converted)): 20.8 h
half-life (human, plasma, po, 3.3 mg/kg, oral 3.3 mg/kg fed state, human plasma, read-out: t1/2 GMean (converted)): 19 h
half-life (human, plasma, po, 3.3 mg/kg, oral 3.3 mg/kg fed state, human plasma, read-out: t1/2 Median (converted)): 21.2 h
AUC(0-t) (human, plasma, po, 3.3 mg/kg, oral 3.3 mg/kg, Fasted, read-out: AUClast LS Means): 1460 ng·h/mL
AUC(0-inf) (human, plasma, po, 3.3 mg/kg, oral 3.3 mg/kg, Fasted, read-out: AUC∞ LS Means): 1480 ng·h/mL
Cmax (human, plasma, po, 3.3 mg/kg, oral 3.3 mg/kg, Fasted, read-out: Cmax LS Means): 133 ng/mL
AUC(0-t) (human, plasma, po, 3.3 mg/kg, oral 3.3 mg/kg, Fed, read-out: AUClast LS Means): 4250 ng·h/mL
AUC(0-inf) (human, plasma, po, 3.3 mg/kg, oral 3.3 mg/kg, Fed, read-out: AUC∞ LS Means): 4330 ng·h/mL
Cmax (human, plasma, po, 3.3 mg/kg, oral 3.3 mg/kg, Fed, read-out: Cmax LS Means): 474 ng/mL
bioavailability (human, plasma, po, human, fasting, read-out: oral bioavailability, FAUC∞ based regression): 14 to 24%
bioavailability (human, plasma, po, human, fasting, read-out: oral bioavailability, FCmax based regression): 4 to 16%
bioavailability (human, plasma, po, human, fed state, read-out: oral bioavailability, FAUC∞ based regression): 41 to 71%
bioavailability (human, plasma, po, human, fed state, read-out: oral bioavailability, FCmax based regression): 16 to 52%
% extrap Arithmetic Mean [1]: 1.518%
% extrap GMean [1]: 1.219%
% extrap Median [1]: 1.45%
AUC∞/Dose Arithmetic Mean [1]: 7.224 ng·h/mL/mg
AUC∞/Dose GMean [1]: 6.128 ng·h/mL/mg
AUC∞/Dose Median [1]: 5.77 ng·h/mL/mg
Clast Arithmetic Mean [1]: 1.158 ng/mL
Clast GMean [1]: 0.8024 ng/mL
Clast Median [1]: 0.719 ng/mL
Cmax/Dose Arithmetic Mean [1]: 0.6705 ng/mL/mg
Cmax/Dose GMean [1]: 0.5482 ng/mL/mg
Cmax/Dose Median [1]: 0.622 ng/mL/mg
R^2 Arithmetic Mean [1]: 0.9926 #
R^2 GMean [1]: 0.9925 #
R^2 Median [1]: 0.9962 #
λZ Arithmetic Mean [1]: 0.04754 h⁻¹
λZ GMean [1]: 0.04443 h⁻¹
λZ Median [1]: 0.0381 h⁻¹
% extrap Arithmetic Mean [2]: 1.865%
% extrap GMean [2]: 1.301%
% extrap Median [2]: 1.73%
AUC∞/Dose Arithmetic Mean [2]: 20.18 ng·h/mL/mg
AUC∞/Dose GMean [2]: 17.90 ng·h/mL/mg
AUC∞/Dose Median [2]: 19.2 ng·h/mL/mg
Clast Arithmetic Mean [2]: 3.055 ng/mL
Clast GMean [2]: 2.053 ng/mL
Clast Median [2]: 2.03 ng/mL
Cmax/Dose Arithmetic Mean [2]: 2.340 ng/mL/mg
Cmax/Dose GMean [2]: 1.958 ng/mL/mg
Cmax/Dose Median [2]: 2.11 ng/mL/mg
R^2 Arithmetic Mean [2]: 0.9928 #
R^2 GMean [2]: 0.9928 #
R^2 Median [2]: 0.9963 #
λZ Arithmetic Mean [2]: 0.04026 h⁻¹
λZ GMean [2]: 0.03648 h⁻¹
λZ Median [2]: 0.0327 h⁻¹
Relative bioavailability, Ratio (%) Fasted/IV, AUClast [3]: 17.11%
Relative bioavailability, Ratio (%) Fasted/IV, AUC∞ [3]: 17.15%
Relative bioavailability, Ratio (%) Fasted/IV, Cmax [3]: 7.62%
Relative bioavailability, Ratio (%) Fed/IV, AUClast [4]: 50.75%
Relative bioavailability, Ratio (%) Fed/IV, AUC∞ [4]: 51.06%
Relative bioavailability, Ratio (%) Fed/IV, Cmax [4]: 27.24%
Relative bioavailability, Ratio (%) Fed/Fasted, AUClast [5]: 291.00%
Relative bioavailability, Ratio (%) Fed/Fasted, AUC∞ [5]: 292.05%
Relative bioavailability, Ratio (%) Fed/Fasted, Cmax [5]: 357.10%
concentration at 96 h (plasma, other: oral solution (fed and fasted) and IV infusion, 3.3 mg/kg, human, individual subjects, across treatments, read-out: quantifiable plasma concentrations at 96 hours post-dose): 0.273 to 7.18 ng/mL
